Assays:
Format in all cases: cell-based
[1] = tested on: cancer cell line MDA-MB-468; test: Combination index with known cancer drugs against proliferation (Calcusyn software)
Summary of the method: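 MTT proliferation assay: cells exposed continuously to drug for 96 h at 37° C, 5% CO2, screening range 1-200 μg/ml, then MTT 4 h, DMSO solubilisation, absorbance 570 nm. Synergy with known drugs given as combination index (Calcusyn).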

PNT2 = test: MTT assay (anti-proliferative activity)
Excerpt: (§1) The MTT assay was used initially to determine the anti-proliferative activity of the test compounds. In the MTT assay a yellow thiazolyl blue tetrazolium bromide salt (MTT) is reduced, in metabolically active cells, to form insoluble purple formazan crystals which are solubilised by the addition of dimethyl sulphoxide (DMSO). Absorbance readings can then be determined spectrophotometrically and a relationship established between control untreated cells and drug treated cells enabling the quantification of anti-proliferative changes as a result of drug treatment (Mosmann, 1983).
(§2) Wells containing medium only were used as blanks. Following the attachment period, cells were treated with appropriate drug concentrations (20 μl added per well). 40 mg/ml stock drug solutions, in DMSO, were stored at −20° C. and on the day of drug treatment working solutions of 4 mg/ml were prepared in medium which was further diluted to achieve final drug dilution volumes of 20 μl. Initial screening was determined over a concentration range of 1-200 μg/ml. For potent compounds the assay was repeated over a narrower concentration range to determine accurate IC50 values. Cells were exposed to drug for 96 h continual exposure (37° C., 5% CO2). Following the 96 h incubation, 50 μl MTT solution (1 g MTT/500 ml PBS) was added per well and the plates were further incubated for 4 h (37° C., 5% CO2). After incubation the MTT and medium was removed from the wells and 100 μl DMSO added per well. Plates were agitated on an orbital mixer platform (Stuart Scientific) for 10 minutes. Absorbance was measured at 570 nm on a Biotrak II (Amersham Bioscience) plate reader. IC50 values were calculated comparing control and drug treated cells.

LNCAP = test: MTT assay (anti-proliferative activity)
Excerpt: as §1, §2

RKO = test: MTT assay (anti-proliferative activity)
Excerpt: as §1, §2

ZR-75-1 = test: MTT assay (anti-proliferative activity)
Excerpt: as §1, §2

HCT−/− = test: MTT assay (anti-proliferative activity)
Excerpt: as §1, §2

HCT+/+ = test: MTT assay (anti-proliferative activity)
Excerpt: as §1, §2

PC3 = test: MTT assay (anti-proliferative activity)
Excerpt: as §1, §2

H23 = test: MTT assay (anti-proliferative activity)
Excerpt: as §1, §2

HT29 = test: MTT assay (anti-proliferative activity)
Excerpt: as §1, §2

SMILES: CCCCC/C=C\C/C=C\C/C=C\CCCCCOC(=O)c1ccc2c(c1O)C(=O)OC(C)C2 (racemic) [ALM-43, γ-Linolenyl Ester]
- Combination Index ([1]; Cisplatin 1 × 10^−2 mol/L, ALM compound 0.1 μg/ml): 0.063
- Combination Index ([1]; Cisplatin 1 × 10^−2 mol/L, ALM compound 0.5 μg/ml): 0.003
- Combination Index ([1]; Cisplatin 1 × 10^−2 mol/L, ALM compound 1.0 μg/ml): 0.007
- Combination Index ([1]; Cisplatin 1 × 10^−2 mol/L, ALM compound 5.0 μg/ml): 0.038
- Combination Index ([1]; Cisplatin 1 × 10^−3 mol/L, ALM compound 0.1 μg/ml): No
- Combination Index ([1]; Cisplatin 1 × 10^−3 mol/L, ALM compound 0.5 μg/ml): No
- Combination Index ([1]; Cisplatin 1 × 10^−3 mol/L, ALM compound 1.0 μg/ml): No
- Combination Index ([1]; Cisplatin 1 × 10^−3 mol/L, ALM compound 5.0 μg/ml): No
- Combination Index ([1]; Cisplatin 1 × 10^−4 mol/L, ALM compound 0.1 μg/ml): No
- Combination Index ([1]; Cisplatin 1 × 10^−4 mol/L, ALM compound 0.5 μg/ml): No
- Combination Index ([1]; Cisplatin 1 × 10^−4 mol/L, ALM compound 1.0 μg/ml): No
- Combination Index ([1]; Cisplatin 1 × 10^−4 mol/L, ALM compound 5.0 μg/ml): No
- Combination Index ([1]; Cisplatin 1 × 10^−5 mol/L, ALM compound 0.1 μg/ml): No
- Combination Index ([1]; Cisplatin 1 × 10^−5 mol/L, ALM compound 0.5 μg/ml): No
- Combination Index ([1]; Cisplatin 1 × 10^−5 mol/L, ALM compound 1.0 μg/ml): No
- Combination Index ([1]; Cisplatin 1 × 10^−5 mol/L, ALM compound 5.0 μg/ml): No
- Combination Index ([1]; Cisplatin 1 × 10^−6 mol/L, ALM compound 0.1 μg/ml): No
- Combination Index ([1]; Cisplatin 1 × 10^−6 mol/L, ALM compound 0.5 μg/ml): No
- Combination Index ([1]; Cisplatin 1 × 10^−6 mol/L, ALM compound 1.0 μg/ml): No
- Combination Index ([1]; Cisplatin 1 × 10^−6 mol/L, ALM compound 5.0 μg/ml): No
- Combination Index ([1]; Cisplatin 1 × 10^−7 mol/L, ALM compound 0.1 μg/ml): 0.636
- Combination Index ([1]; Cisplatin 1 × 10^−7 mol/L, ALM compound 0.5 μg/ml): 0.612
- Combination Index ([1]; Cisplatin 1 × 10^−7 mol/L, ALM compound 1.0 μg/ml): No
- Combination Index ([1]; Cisplatin 1 × 10^−7 mol/L, ALM compound 5.0 μg/ml): No
- Combination Index ([1]; Cisplatin 1 × 10^−8 mol/L, ALM compound 0.1 μg/ml): 0.199
- Combination Index ([1]; Cisplatin 1 × 10^−8 mol/L, ALM compound 0.5 μg/ml): No
- Combination Index ([1]; Cisplatin 1 × 10^−8 mol/L, ALM compound 1.0 μg/ml): No
- Combination Index ([1]; Cisplatin 1 × 10^−8 mol/L, ALM compound 5.0 μg/ml): No
- Combination Index ([1]; Cisplatin 1 × 10^−9 mol/L, ALM compound 0.1 μg/ml): 0.054
- Combination Index ([1]; Cisplatin 1 × 10^−9 mol/L, ALM compound 0.5 μg/ml): 0.536
- Combination Index ([1]; Cisplatin 1 × 10^−9 mol/L, ALM compound 1.0 μg/ml): No
- Combination Index ([1]; Cisplatin 1 × 10^−9 mol/L, ALM compound 5.0 μg/ml): No
- Combination Index ([1]; Doxorubicin 1 × 10^−4 mol/L, ALM compound 0.1 μg/ml): No
- Combination Index ([1]; Doxorubicin 1 × 10^−4 mol/L, ALM compound 0.5 μg/ml): No
- Combination Index ([1]; Doxorubicin 1 × 10^−4 mol/L, ALM compound 1.0 μg/ml): No
- Combination Index ([1]; Doxorubicin 1 × 10^−4 mol/L, ALM compound 5.0 μg/ml): No
- Combination Index ([1]; Doxorubicin 1 × 10^−5 mol/L, ALM compound 0.1 μg/ml): 0.385
- Combination Index ([1]; Doxorubicin 1 × 10^−5 mol/L, ALM compound 0.5 μg/ml): 0.700
- Combination Index ([1]; Doxorubicin 1 × 10^−5 mol/L, ALM compound 1.0 μg/ml): 0.278
- Combination Index ([1]; Doxorubicin 1 × 10^−5 mol/L, ALM compound 5.0 μg/ml): 0.457
- Combination Index ([1]; Etoposide 1 × 10^−4 mol/L, ALM compound 0.1 μg/ml): 0.399
- Combination Index ([1]; Etoposide 1 × 10^−4 mol/L, ALM compound 0.5 μg/ml): 0.289
- Combination Index ([1]; Etoposide 1 × 10^−4 mol/L, ALM compound 1.0 μg/ml): 0.418
- Combination Index ([1]; Etoposide 1 × 10^−4 mol/L, ALM compound 5.0 μg/ml): 0.474
- Combination Index ([1]; Etoposide 1 × 10^−5 mol/L, ALM compound 0.1 μg/ml): No
- Combination Index ([1]; Etoposide 1 × 10^−5 mol/L, ALM compound 0.5 μg/ml): No
- Combination Index ([1]; Etoposide 1 × 10^−5 mol/L, ALM compound 1.0 μg/ml): No
- Combination Index ([1]; Etoposide 1 × 10^−5 mol/L, ALM compound 5.0 μg/ml): No
- Combination Index ([1]; Etoposide 1 × 10^−6 mol/L, ALM compound 0.1 μg/ml): No
- Combination Index ([1]; Etoposide 1 × 10^−6 mol/L, ALM compound 0.5 μg/ml): 0.865
- Combination Index ([1]; Etoposide 1 × 10^−6 mol/L, ALM compound 1.0 μg/ml): No
- Combination Index ([1]; Etoposide 1 × 10^−6 mol/L, ALM compound 5.0 μg/ml): No
- Combination Index ([1]; Etoposide 1 × 10^−7 mol/L, ALM compound 0.1 μg/ml): 0.473
- Combination Index ([1]; Etoposide 1 × 10^−7 mol/L, ALM compound 0.5 μg/ml): 0.305
- Combination Index ([1]; Etoposide 1 × 10^−7 mol/L, ALM compound 1.0 μg/ml): No
- Combination Index ([1]; Etoposide 1 × 10^−7 mol/L, ALM compound 5.0 μg/ml): No
- Combination Index ([1]; Etoposide 1 × 10^−8 mol/L, ALM compound 0.1 μg/ml): 0.181
- Combination Index ([1]; Etoposide 1 × 10^−8 mol/L, ALM compound 0.5 μg/ml): 0.137
- Combination Index ([1]; Etoposide 1 × 10^−8 mol/L, ALM compound 1.0 μg/ml): No
- Combination Index ([1]; Etoposide 1 × 10^−8 mol/L, ALM compound 5.0 μg/ml): No
- Combination Index ([1]; Etoposide 1 × 10^−9 mol/L, ALM compound 0.1 μg/ml): 0.090
- Combination Index ([1]; Etoposide 1 × 10^−9 mol/L, ALM compound 0.5 μg/ml): 0.319
- Combination Index ([1]; Etoposide 1 × 10^−9 mol/L, ALM compound 1.0 μg/ml): No
- Combination Index ([1]; Etoposide 1 × 10^−9 mol/L, ALM compound 5.0 μg/ml): No
- Combination Index ([1]; Etoposide 1 × 10^−10 mol/L, ALM compound 0.1 μg/ml): 0.083
- Combination Index ([1]; Etoposide 1 × 10^−10 mol/L, ALM compound 0.5 μg/ml): 0.515
- Combination Index ([1]; Etoposide 1 × 10^−10 mol/L, ALM compound 1.0 μg/ml): No
- Combination Index ([1]; Etoposide 1 × 10^−10 mol/L, ALM compound 5.0 μg/ml): No
- Combination Index ([1]; Irinotecan 1 × 10^−3 mol/L, ALM compound 0.1 μg/ml): 0.088
- Combination Index ([1]; Irinotecan 1 × 10^−3 mol/L, ALM compound 0.5 μg/ml): 0.230
- Combination Index ([1]; Irinotecan 1 × 10^−3 mol/L, ALM compound 1.0 μg/ml): 0.438
- Combination Index ([1]; Irinotecan 1 × 10^−3 mol/L, ALM compound 5.0 μg/ml): 0.307
- Combination Index ([1]; Irinotecan 1 × 10^−4 mol/L, ALM compound 0.1 μg/ml): 0.019
- Combination Index ([1]; Irinotecan 1 × 10^−4 mol/L, ALM compound 0.5 μg/ml): 0.005
- Combination Index ([1]; Irinotecan 1 × 10^−4 mol/L, ALM compound 1.0 μg/ml): 0.040
- Combination Index ([1]; Irinotecan 1 × 10^−4 mol/L, ALM compound 5.0 μg/ml): 0.113
- Combination Index ([1]; Irinotecan 1 × 10^−5 mol/L, ALM compound 0.1 μg/ml): No
- Combination Index ([1]; Irinotecan 1 × 10^−5 mol/L, ALM compound 0.5 μg/ml): No
- Combination Index ([1]; Irinotecan 1 × 10^−5 mol/L, ALM compound 1.0 μg/ml): No
- Combination Index ([1]; Irinotecan 1 × 10^−5 mol/L, ALM compound 5.0 μg/ml): No
- Combination Index ([1]; Irinotecan 1 × 10^−6 mol/L, ALM compound 0.1 μg/ml): No
- Combination Index ([1]; Irinotecan 1 × 10^−6 mol/L, ALM compound 0.5 μg/ml): No
- Combination Index ([1]; Irinotecan 1 × 10^−6 mol/L, ALM compound 1.0 μg/ml): No
- Combination Index ([1]; Irinotecan 1 × 10^−6 mol/L, ALM compound 5.0 μg/ml): No
- Combination Index ([1]; Irinotecan 1 × 10^−7 mol/L, ALM compound 0.1 μg/ml): No
- Combination Index ([1]; Irinotecan 1 × 10^−7 mol/L, ALM compound 0.5 μg/ml): No
- Combination Index ([1]; Irinotecan 1 × 10^−7 mol/L, ALM compound 1.0 μg/ml): No
- Combination Index ([1]; Irinotecan 1 × 10^−7 mol/L, ALM compound 5.0 μg/ml): No
- Combination Index ([1]; Irinotecan 1 × 10^−8 mol/L, ALM compound 0.1 μg/ml): 0.514
- Combination Index ([1]; Irinotecan 1 × 10^−8 mol/L, ALM compound 0.5 μg/ml): 0.233
- Combination Index ([1]; Irinotecan 1 × 10^−8 mol/L, ALM compound 1.0 μg/ml): No
- Combination Index ([1]; Irinotecan 1 × 10^−8 mol/L, ALM compound 5.0 μg/ml): No
- Combination Index ([1]; Irinotecan 1 × 10^−9 mol/L, ALM compound 0.1 μg/ml): 0.701
- Combination Index ([1]; Irinotecan 1 × 10^−9 mol/L, ALM compound 0.5 μg/ml): 0.628
- Combination Index ([1]; Irinotecan 1 × 10^−9 mol/L, ALM compound 1.0 μg/ml): No
- Combination Index ([1]; Irinotecan 1 × 10^−9 mol/L, ALM compound 5.0 μg/ml): No
- Combination Index ([1]; Irinotecan 1 × 10^−11 mol/L, ALM compound 0.1 μg/ml): 0.172
- Combination Index ([1]; Irinotecan 1 × 10^−11 mol/L, ALM compound 0.5 μg/ml): 0.484
- Combination Index ([1]; Irinotecan 1 × 10^−11 mol/L, ALM compound 1.0 μg/ml): No
- Combination Index ([1]; Irinotecan 1 × 10^−11 mol/L, ALM compound 5.0 μg/ml): No
- IC50 (PNT2): 5.3 µM
- IC50 (LNCAP): 10.7 µM
- IC50 (RKO): 10.7 µM
- IC50 (ZR-75-1): 6.4 µM
- IC50 (HCT−/−): 42.7 µM
- IC50 (HCT+/+): 21.3 µM
- IC50 (PC3): 9.6 µM
- IC50 (H23): 2.1 µM
- IC50 (HT29): 18.7 µM
